{
  "source": "paper PMC11676667",
  "about": "“Pharmacokinetics of Oral Cannabinoid Δ8-Tetrahydrocannabivarin and Its Main Metabolites in Healthy Participants” (Pharmaceuticals, 2024)",
  "key": {"[1]": {"experiment": "Plasma pharmacokinetics after single oral dose of Δ8-THCV in MCT oil (LC-MS/MS, non-compartmental analysis)", "format": "in vivo, human", "conditions": "for concentration at 0.5 h / concentration at 1 h / concentration at 2 h / concentration at 4 h / concentration at 6 h / concentration at 8 h / AUC(0-t) / Cmax / MRT / Tmax: human; for concentration at 0.5 h / concentration at 1 h / concentration at 2 h / concentration at 4 h / concentration at 6 h / concentration at 8 h: oral; for AUC(0-t) / Cmax / MRT / Tmax: po; for MRT: read-out: MRT (mean residence time)", "outline": "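Healthy participants received single oral Δ8-THCV in MCT oil (50 mg/mL; 12.5-200 mg, or placebo) after a high-fat, high-calorie breakfast, with ≥1-week washout. Plasma (K2EDTA) sampled predose and 0.5-8 h post-dose, assayed by validated LC-MS/MS including metabolites; PK by non-compartmental analysis, sub-LLOQ values set to 0.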"}, "[2]": {"system": "CB2 receptors", "parameters": "method as in PMID 21470208", "conditions": "in vitro; cited from earlier work"}, "[3]": {"conditions": "plasma, 100 mg, 100 mg Δ8-THCV dose, Median (IQ Range)"}, "[4]": {"conditions": "plasma, 100 mg, 100 mg Δ8-THCV dose, Mean (SD, %CV)"}, "[5]": {"conditions": "plasma, 200 mg, 200 mg Δ8-THCV dose, Mean (SD, %CV)"}, "[6]": {"conditions": "plasma, 200 mg, 200 mg Δ8-THCV dose, Median (IQ Range)"}, "[7]": {"conditions": "plasma, 12.5 mg, 12.5 mg single oral Δ8-THCV in MCT oil, Mean (±SD)"}, "[8]": {"conditions": "plasma, 12.5 mg, 12.5 mg single oral Δ8-THCV in MCT oil, Median (Range)"}, "[9]": {"conditions": "plasma, 25 mg, 25 mg single oral Δ8-THCV in MCT oil, Mean (±SD)"}, "[10]": {"conditions": "plasma, 25 mg, 25 mg single oral Δ8-THCV in MCT oil, Median (Range)"}, "[11]": {"conditions": "plasma, 50 mg, 50 mg single oral Δ8-THCV in MCT oil, Mean (±SD)"}, "[12]": {"conditions": "plasma, 50 mg, 50 mg single oral Δ8-THCV in MCT oil, Median (Range)"}, "[13]": {"conditions": "plasma, 100 mg, 100 mg single oral Δ8-THCV in MCT oil, Mean (±SD)"}, "[14]": {"conditions": "plasma, 100 mg, 100 mg single oral Δ8-THCV in MCT oil, Median (Range)"}, "[15]": {"conditions": "plasma, 200 mg, 200 mg single oral Δ8-THCV in MCT oil, Mean (±SD)"}, "[16]": {"conditions": "plasma, 200 mg, 200 mg single oral Δ8-THCV in MCT oil, Median (Range)"}},
  "note": "Read-outs that look alike come from different tables or passages of the source.",
  "data": [
    {"compound": "CCCc1cc(O)c2c(c1)OC(C)(C)[C@@H]1CC=C(C)C[C@@H]21", "note": "[Δ8-THCV, Δ8-tetrahydrocannabivarin]", "values": [
      {"measurement": "concentration at 0.5 h", "setting": "[1]; [3]", "result": 0, "unit": "ng/mL"},
      {"measurement": "concentration at 1 h", "setting": "[1]; [4]", "result": 4.2, "unit": "ng/mL"},
      {"measurement": "concentration at 1 h", "setting": "[1]; [3]", "result": 2.1, "unit": "ng/mL"},
      {"measurement": "concentration at 2 h", "setting": "[1]; [4]", "result": 7.1, "unit": "ng/mL"},
      {"measurement": "concentration at 2 h", "setting": "[1]; [3]", "result": 5.5, "unit": "ng/mL"},
      {"measurement": "concentration at 4 h", "setting": "[1]; [4]", "result": 11.4, "unit": "ng/mL"},
      {"measurement": "concentration at 4 h", "setting": "[1]; [3]", "result": 7.3, "unit": "ng/mL"},
      {"measurement": "concentration at 6 h", "setting": "[1]; [4]", "result": 12.3, "unit": "ng/mL"},
      {"measurement": "concentration at 6 h", "setting": "[1]; [3]", "result": 7.7, "unit": "ng/mL"},
      {"measurement": "concentration at 8 h", "setting": "[1]; [4]", "result": 4.1, "unit": "ng/mL"},
      {"measurement": "concentration at 8 h", "setting": "[1]; [3]", "result": 3.1, "unit": "ng/mL"},
      {"measurement": "concentration at 0.5 h", "setting": "[1]; [5]", "result": 0.1, "unit": "ng/mL"},
      {"measurement": "concentration at 0.5 h", "setting": "[1]; [6]", "result": 0, "unit": "ng/mL"},
      {"measurement": "concentration at 1 h", "setting": "[1]; [5]", "result": 3.6, "unit": "ng/mL"},
      {"measurement": "concentration at 1 h", "setting": "[1]; [6]", "result": 2, "unit": "ng/mL"},
      {"measurement": "concentration at 2 h", "setting": "[1]; [5]", "result": 21.4, "unit": "ng/mL"},
      {"measurement": "concentration at 2 h", "setting": "[1]; [6]", "result": 14.3, "unit": "ng/mL"},
      {"measurement": "concentration at 4 h", "setting": "[1]; [5]", "result": 29.4, "unit": "ng/mL"},
      {"measurement": "concentration at 4 h", "setting": "[1]; [6]", "result": 33.3, "unit": "ng/mL"},
      {"measurement": "concentration at 6 h", "setting": "[1]; [5]", "result": 26.6, "unit": "ng/mL"},
      {"measurement": "concentration at 6 h", "setting": "[1]; [6]", "result": 21.8, "unit": "ng/mL"},
      {"measurement": "concentration at 8 h", "setting": "[1]; [5]", "result": 21.2, "unit": "ng/mL"},
      {"measurement": "concentration at 8 h", "setting": "[1]; [6]", "result": 13.4, "unit": "ng/mL"},
      {"measurement": "AUC(0-t)", "setting": "[1]; [7]", "result": 3.5, "unit": "ng·h/mL"},
      {"measurement": "Cmax", "setting": "[1]; [7]", "result": 1.6, "unit": "ng/mL"},
      {"measurement": "AUC(0-t)", "setting": "[1]; [8]", "result": 2.1, "unit": "ng·h/mL"},
      {"measurement": "Cmax", "setting": "[1]; [8]", "result": 1.1, "unit": "ng/mL"},
      {"measurement": "MRT", "setting": "[1]; plasma, 12.5 mg, 12.5 mg single oral Δ8-THCV in MCT oil, plasma, Mean (±SD)", "result": 4, "unit": "h"},
      {"measurement": "Tmax", "setting": "[1]; plasma, 12.5 mg, 12.5 mg single oral Δ8-THCV in MCT oil, plasma, Mean (±SD), read-out: tmax", "result": 3.9, "unit": "h"},
      {"measurement": "MRT", "setting": "[1]; plasma, 12.5 mg, 12.5 mg single oral Δ8-THCV in MCT oil, plasma, Median (Range)", "result": 4, "unit": "h"},
      {"measurement": "Tmax", "setting": "[1]; plasma, 12.5 mg, 12.5 mg single oral Δ8-THCV in MCT oil, plasma, Median (Range), read-out: tmax", "result": 4, "unit": "h"},
      {"measurement": "AUC(0-t)", "setting": "[1]; [9]", "result": 7.4, "unit": "ng·h/mL"},
      {"measurement": "Cmax", "setting": "[1]; [9]", "result": 2.6, "unit": "ng/mL"},
      {"measurement": "AUC(0-t)", "setting": "[1]; [10]", "result": 5.2, "unit": "ng·h/mL"},
      {"measurement": "Cmax", "setting": "[1]; [10]", "result": 2.1, "unit": "ng/mL"},
      {"measurement": "MRT", "setting": "[1]; plasma, 25 mg, 25 mg single oral Δ8-THCV in MCT oil, plasma, Mean (±SD)", "result": 4.1, "unit": "h"},
      {"measurement": "Tmax", "setting": "[1]; plasma, 25 mg, 25 mg single oral Δ8-THCV in MCT oil, plasma, Mean (±SD), read-out: tmax", "result": 3.8, "unit": "h"},
      {"measurement": "MRT", "setting": "[1]; plasma, 25 mg, 25 mg single oral Δ8-THCV in MCT oil, plasma, Median (Range)", "result": 4.2, "unit": "h"},
      {"measurement": "Tmax", "setting": "[1]; plasma, 25 mg, 25 mg single oral Δ8-THCV in MCT oil, plasma, Median (Range), read-out: tmax", "result": 4, "unit": "h"},
      {"measurement": "AUC(0-t)", "setting": "[1]; [11]", "result": 27.3, "unit": "ng·h/mL"},
      {"measurement": "Cmax", "setting": "[1]; [11]", "result": 10, "unit": "ng/mL"},
      {"measurement": "AUC(0-t)", "setting": "[1]; [12]", "result": 24.9, "unit": "ng·h/mL"},
      {"measurement": "Cmax", "setting": "[1]; [12]", "result": 10, "unit": "ng/mL"},
      {"measurement": "MRT", "setting": "[1]; plasma, 50 mg, 50 mg single oral Δ8-THCV in MCT oil, plasma, Mean (±SD)", "result": 5.2, "unit": "h"},
      {"measurement": "Tmax", "setting": "[1]; plasma, 50 mg, 50 mg single oral Δ8-THCV in MCT oil, plasma, Mean (±SD), read-out: tmax", "result": 5, "unit": "h"},
      {"measurement": "MRT", "setting": "[1]; plasma, 50 mg, 50 mg single oral Δ8-THCV in MCT oil, plasma, Median (Range)", "result": 5.4, "unit": "h"},
      {"measurement": "Tmax", "setting": "[1]; plasma, 50 mg, 50 mg single oral Δ8-THCV in MCT oil, plasma, Median (Range), read-out: tmax", "result": 6, "unit": "h"},
      {"measurement": "AUC(0-t)", "setting": "[1]; [13]", "result": 65.5, "unit": "ng·h/mL"},
      {"measurement": "Cmax", "setting": "[1]; [13]", "result": 21.5, "unit": "ng/mL"},
      {"measurement": "AUC(0-t)", "setting": "[1]; [14]", "result": 58.4, "unit": "ng·h/mL"},
      {"measurement": "Cmax", "setting": "[1]; [14]", "result": 22, "unit": "ng/mL"},
      {"measurement": "MRT", "setting": "[1]; plasma, 100 mg, 100 mg single oral Δ8-THCV in MCT oil, plasma, Mean (±SD)", "result": 4.5, "unit": "h"},
      {"measurement": "Tmax", "setting": "[1]; plasma, 100 mg, 100 mg single oral Δ8-THCV in MCT oil, plasma, Mean (±SD), read-out: tmax", "result": 4.2, "unit": "h"},
      {"measurement": "MRT", "setting": "[1]; plasma, 100 mg, 100 mg single oral Δ8-THCV in MCT oil, plasma, Median (Range)", "result": 4.1, "unit": "h"},
      {"measurement": "Tmax", "setting": "[1]; plasma, 100 mg, 100 mg single oral Δ8-THCV in MCT oil, plasma, Median (Range), read-out: tmax", "result": 4, "unit": "h"},
      {"measurement": "AUC(0-t)", "setting": "[1]; [15]", "result": 168, "unit": "ng·h/mL"},
      {"measurement": "Cmax", "setting": "[1]; [15]", "result": 52.9, "unit": "ng/mL"},
      {"measurement": "AUC(0-t)", "setting": "[1]; [16]", "result": 165, "unit": "ng·h/mL"},
      {"measurement": "Cmax", "setting": "[1]; [16]", "result": 51.7, "unit": "ng/mL"},
      {"measurement": "MRT", "setting": "[1]; plasma, 200 mg, 200 mg single oral Δ8-THCV in MCT oil, plasma, Mean (±SD)", "result": 4.7, "unit": "h"},
      {"measurement": "Tmax", "setting": "[1]; plasma, 200 mg, 200 mg single oral Δ8-THCV in MCT oil, plasma, Mean (±SD), read-out: tmax", "result": 4.7, "unit": "h"},
      {"measurement": "MRT", "setting": "[1]; plasma, 200 mg, 200 mg single oral Δ8-THCV in MCT oil, plasma, Median (Range)", "result": 4.7, "unit": "h"},
      {"measurement": "Tmax", "setting": "[1]; plasma, 200 mg, 200 mg single oral Δ8-THCV in MCT oil, plasma, Median (Range), read-out: tmax", "result": 4, "unit": "h"},
      {"measurement": "Tmax", "setting": "[1]; plasma, across oral Δ8-THCV doses 12.5-200 mg, plasma, read-out: median time-to-maximum concentration (tmax), range across doses", "result": "3.8 to 5", "unit": "h"},
      {"measurement": "number of positive plasma samples", "setting": "[1]; of 504 plasma samples from 15 participants after oral Δ8-THCV", "result": 236},
      {"measurement": "concentration in representative plasma sample", "setting": "[1]; one subject after oral Δ8-THCV in MCT oil, Figure A1", "result": 69.8, "unit": "ng/mL"},
      {"measurement": "increase of median AUClast every two-fold increase in the dose", "setting": "[1]; oral Δ8-THCV 12.5-200 mg, plasma", "result": "2.3- to 4.8 fold"},
      {"measurement": "tmax later after doses greater than 50 mg compared to the 12.5 mg and 25 mg doses", "setting": "[1]; oral Δ8-THCV, plasma", "result": 1.3, "unit": "fold"},
      {"measurement": "CB2 receptor activation", "setting": "[2]", "result": "activate CB2 receptors"}
    ]}
  ]
}
